This passage reports Kd results from publication PMC2892103 (Journal of molecular biology, 2010).

The assay concerns the target T1, E. coli TrmD (Escherichia coli, UniProt P0A873).
T1 sequence (P0A873 1-255): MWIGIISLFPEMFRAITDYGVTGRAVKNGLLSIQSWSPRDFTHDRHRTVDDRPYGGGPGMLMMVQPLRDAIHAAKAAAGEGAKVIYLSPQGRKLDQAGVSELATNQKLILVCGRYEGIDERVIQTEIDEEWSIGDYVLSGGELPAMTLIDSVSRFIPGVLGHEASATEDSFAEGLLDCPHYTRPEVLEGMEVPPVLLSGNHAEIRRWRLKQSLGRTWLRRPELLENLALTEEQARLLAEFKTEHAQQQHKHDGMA
The experiment in a line: intrinsic tryptophan fluorescence quenching, quadratic fit. It is filed as binding.

Consider `C[S+](CC[C@H](N)C(=O)O)C[C@H]1O[C@@H](n2cnc3c(N)ncnc32)[C@H](O)[C@@H]1O` (some centres unmarked) [AdoMet], for which the affinity, expressed as Kd, was 1100 ± 200 nM. For `Nc1ncnc2c1ncn2[C@@H]1O[C@H](CSCC[C@H](N)C(=O)O)[C@@H](O)[C@H]1O` [AdoHcy] the value was 330 ± 40 nM.
